Assay results published in ChEMBL document CHEMBL1938349 (Bioorg Med Chem, 2012).
pKi: −log10 of the molar value.

How the values were obtained:
Histamine H1 receptor = Histamine H1 receptor (Homo sapiens, UniProt P35367)
[1] = target: T1, Alpha-2C adrenergic receptor (Homo sapiens, UniProt P18825); assay: Displacement of [3H]clonidine from human Alpha-2C receptor by liquid scintillation counting
T1 sequence (P18825 whole entry): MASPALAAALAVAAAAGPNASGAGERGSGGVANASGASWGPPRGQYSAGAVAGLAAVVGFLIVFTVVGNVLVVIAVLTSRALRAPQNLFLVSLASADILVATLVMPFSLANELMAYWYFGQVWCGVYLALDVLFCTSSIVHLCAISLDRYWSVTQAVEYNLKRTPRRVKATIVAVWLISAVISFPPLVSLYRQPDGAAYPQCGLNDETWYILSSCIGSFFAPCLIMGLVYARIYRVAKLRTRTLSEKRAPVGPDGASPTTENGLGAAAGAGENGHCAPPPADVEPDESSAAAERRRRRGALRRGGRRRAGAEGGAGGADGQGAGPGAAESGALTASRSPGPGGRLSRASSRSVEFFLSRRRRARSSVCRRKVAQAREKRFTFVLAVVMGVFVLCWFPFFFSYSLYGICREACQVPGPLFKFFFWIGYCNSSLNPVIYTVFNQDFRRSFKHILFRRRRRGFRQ

[2] = target: 5-hydroxytryptamine receptor 2A (Homo sapiens, UniProt P28223); assay: Displacement of [3H]DOI from human 5HT2A receptor after 1 hr by liquid scintillation counting
Chain of 5-hydroxytryptamine receptor 2A (P28223 whole entry): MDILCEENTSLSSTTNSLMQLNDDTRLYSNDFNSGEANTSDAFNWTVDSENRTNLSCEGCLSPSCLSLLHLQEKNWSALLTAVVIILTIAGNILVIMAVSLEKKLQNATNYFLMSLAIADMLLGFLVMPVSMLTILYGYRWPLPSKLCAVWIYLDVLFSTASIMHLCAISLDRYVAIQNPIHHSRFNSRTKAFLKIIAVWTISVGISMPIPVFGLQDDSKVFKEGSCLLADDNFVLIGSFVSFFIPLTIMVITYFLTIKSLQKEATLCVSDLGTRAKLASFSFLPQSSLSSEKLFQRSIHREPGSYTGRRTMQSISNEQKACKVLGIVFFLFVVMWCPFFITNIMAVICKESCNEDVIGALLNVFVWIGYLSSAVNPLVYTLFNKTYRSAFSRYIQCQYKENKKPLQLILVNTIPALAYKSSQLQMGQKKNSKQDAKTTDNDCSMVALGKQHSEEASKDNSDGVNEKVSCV

D(3) dopamine receptor = D(3) dopamine receptor (Homo sapiens, UniProt P35462); assay: Displacement of [3H]N-methylspiperone from human dopamine D3 receptor by liquid scintillation counting
Chain of D(3) dopamine receptor (P35462 whole entry): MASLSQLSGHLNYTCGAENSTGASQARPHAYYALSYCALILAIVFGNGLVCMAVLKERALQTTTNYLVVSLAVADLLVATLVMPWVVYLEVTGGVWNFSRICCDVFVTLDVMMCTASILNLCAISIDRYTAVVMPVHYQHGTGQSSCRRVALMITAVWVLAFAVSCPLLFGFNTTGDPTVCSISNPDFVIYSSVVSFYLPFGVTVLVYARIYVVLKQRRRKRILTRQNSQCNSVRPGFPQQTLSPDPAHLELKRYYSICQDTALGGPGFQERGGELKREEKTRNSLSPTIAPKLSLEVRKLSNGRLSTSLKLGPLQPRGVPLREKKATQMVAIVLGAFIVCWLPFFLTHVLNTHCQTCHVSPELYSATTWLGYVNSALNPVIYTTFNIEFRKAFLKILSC

[3] = target: T2, 5-hydroxytryptamine receptor 1A (Homo sapiens, UniProt P08908); assay: Displacement of [3H]8-OH-DPAT from human 5HT1A receptor by liquid scintillation counting
T2 sequence (P08908 whole entry): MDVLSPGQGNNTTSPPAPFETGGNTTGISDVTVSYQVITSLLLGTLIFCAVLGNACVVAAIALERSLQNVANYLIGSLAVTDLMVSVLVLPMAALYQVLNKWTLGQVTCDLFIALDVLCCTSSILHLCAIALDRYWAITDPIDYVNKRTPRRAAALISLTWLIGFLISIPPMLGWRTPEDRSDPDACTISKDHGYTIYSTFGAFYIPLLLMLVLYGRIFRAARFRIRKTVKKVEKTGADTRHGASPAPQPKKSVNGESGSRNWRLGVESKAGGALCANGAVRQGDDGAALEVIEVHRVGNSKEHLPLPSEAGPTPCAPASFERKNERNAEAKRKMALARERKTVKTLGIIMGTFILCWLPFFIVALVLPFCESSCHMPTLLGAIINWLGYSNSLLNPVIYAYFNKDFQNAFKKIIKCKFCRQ

D(2) dopamine receptor = D(2) dopamine receptor (Homo sapiens, UniProt P14416); assay: Displacement of [3H]N-methylspiperone from human dopamine D2 receptor by liquid scintillation counting
Chain of D(2) dopamine receptor (P14416 whole entry): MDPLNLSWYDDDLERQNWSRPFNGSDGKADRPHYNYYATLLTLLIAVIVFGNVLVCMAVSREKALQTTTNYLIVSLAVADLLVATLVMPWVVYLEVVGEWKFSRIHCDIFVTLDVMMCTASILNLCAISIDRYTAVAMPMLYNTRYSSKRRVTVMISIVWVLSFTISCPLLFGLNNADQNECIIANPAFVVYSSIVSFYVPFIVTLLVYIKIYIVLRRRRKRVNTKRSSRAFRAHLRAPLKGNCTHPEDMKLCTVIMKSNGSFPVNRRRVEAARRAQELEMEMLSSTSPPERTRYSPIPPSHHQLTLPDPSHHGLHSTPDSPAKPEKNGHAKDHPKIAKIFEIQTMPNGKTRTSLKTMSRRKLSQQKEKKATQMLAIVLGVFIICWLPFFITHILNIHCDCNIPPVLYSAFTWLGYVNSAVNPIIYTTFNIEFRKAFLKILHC

D(4) dopamine receptor = target: T3, D(4) dopamine receptor (Rattus norvegicus, UniProt P30729); assay: Displacement of [3H]N-methylspiperone from rat dopamine D4 receptor by liquid scintillation counting
T3 sequence (P30729 whole entry): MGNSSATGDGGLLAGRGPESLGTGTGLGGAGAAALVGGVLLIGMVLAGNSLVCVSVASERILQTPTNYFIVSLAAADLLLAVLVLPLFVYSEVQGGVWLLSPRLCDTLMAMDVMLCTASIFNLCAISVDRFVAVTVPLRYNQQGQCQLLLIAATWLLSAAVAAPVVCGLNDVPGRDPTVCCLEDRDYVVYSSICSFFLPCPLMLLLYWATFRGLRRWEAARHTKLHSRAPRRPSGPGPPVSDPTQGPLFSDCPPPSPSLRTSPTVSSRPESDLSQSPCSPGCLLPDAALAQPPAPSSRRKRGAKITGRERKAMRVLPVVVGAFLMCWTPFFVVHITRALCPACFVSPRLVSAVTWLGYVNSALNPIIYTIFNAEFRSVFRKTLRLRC

[4] = target: T4, 5-hydroxytryptamine receptor 2C (Rattus norvegicus, UniProt P08909); assay: Displacement of [3H]mesulergine from rat 5HT2C receptor by liquid scintillation counting
T4 sequence (P08909 whole entry): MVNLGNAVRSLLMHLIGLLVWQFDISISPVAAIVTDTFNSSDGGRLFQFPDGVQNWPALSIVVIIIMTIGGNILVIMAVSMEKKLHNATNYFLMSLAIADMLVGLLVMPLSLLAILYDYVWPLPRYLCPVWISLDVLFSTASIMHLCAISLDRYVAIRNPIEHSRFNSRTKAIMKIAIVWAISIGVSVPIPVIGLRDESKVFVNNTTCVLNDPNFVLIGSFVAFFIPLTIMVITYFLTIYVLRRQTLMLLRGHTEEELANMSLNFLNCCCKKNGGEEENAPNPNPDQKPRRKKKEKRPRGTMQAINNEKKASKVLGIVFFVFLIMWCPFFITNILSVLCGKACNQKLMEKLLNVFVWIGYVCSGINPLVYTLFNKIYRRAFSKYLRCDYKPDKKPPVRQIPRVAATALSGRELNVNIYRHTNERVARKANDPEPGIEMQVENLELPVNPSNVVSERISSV

Chain of Histamine H1 receptor (P35367 whole entry): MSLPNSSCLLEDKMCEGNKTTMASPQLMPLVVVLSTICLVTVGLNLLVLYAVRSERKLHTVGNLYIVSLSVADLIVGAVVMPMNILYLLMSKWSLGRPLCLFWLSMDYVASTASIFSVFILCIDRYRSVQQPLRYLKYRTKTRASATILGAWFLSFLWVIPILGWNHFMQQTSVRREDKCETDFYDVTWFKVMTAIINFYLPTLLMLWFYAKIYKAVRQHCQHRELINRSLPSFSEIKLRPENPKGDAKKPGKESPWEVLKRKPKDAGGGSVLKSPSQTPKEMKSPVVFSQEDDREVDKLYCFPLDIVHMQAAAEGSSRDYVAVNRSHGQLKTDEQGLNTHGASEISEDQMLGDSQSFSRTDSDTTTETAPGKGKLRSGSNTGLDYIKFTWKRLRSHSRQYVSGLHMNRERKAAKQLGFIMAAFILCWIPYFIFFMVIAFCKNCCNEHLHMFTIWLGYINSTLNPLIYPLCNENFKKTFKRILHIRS

pKi [1] | Compound | pKi (Histamine H1 receptor) | pKi [2] | pKi (D(3) dopamine receptor) | pKi [3] | pKi (D(2) dopamine receptor) | pKi (D(4) dopamine receptor) | pKi [4]
 | Fc1ccc(OCCCN2CCN(c3ccc(Cl)cc3)CC2)cc1 |  | 7.22 | 6.05 | 7.10 | 6.41 | 8.16 | 
 | Fc1ccc(SCCCN2CCC(c3ccc(Cl)cc3)CC2)cc1 |  | 6.95 | 6.89 | 6.34 | 6.73 | 7.41 | < 5.00
 | Clc1ccc(N2CCN(CCCOc3ccccc3)CC2)cc1 |  |  | 6.14 | 6.81 | 6.35 | 8.25 | 
 | Fc1ccc(OCCCN2CCN(c3ccccn3)CC2)cc1 | 6.58 |  |  |  |  |  | 
 | Fc1ccc(SCCCN2CCN(c3ncccn3)CC2)cc1 |  | 7.57 | 7.17 | 7.03 | 6.37 | 7.68 | 5.05
 | [O-][S+](CCCN1CCC(c2ccc(Cl)cc2)CC1)c1ccc(F)cc1 (stereo not drawn) |  | 6.65 | 6.61 | 6.21 | 6.00 | 7.46 | < 5.00
 | Fc1ccc(OCCCN2CCN(c3ncccn3)CC2)cc1 |  | 7.64 | 6.11 | 7.64 | 6.20 | 8.38 | < 5.00
 | c1ccc(OCCCN2CCN(c3ccccc3)CC2)cc1 | 7.17 | 7.34 | 7.10 | 7.60 | 6.92 | 8.35 | 
 | Fc1ccc(OCCCN2CCN(c3ccccc3)CC2)cc1 | 7.20 | 7.24 | 6.68 | 7.62 | 7.43 | 8.13 | 
 | Fc1ccc(CCCCN2CCN(c3ccc(Cl)cc3)CC2)cc1 |  | 7.09 | 6.58 | 6.95 |  | 8.11 | 
 | Fc1ccc(OCCCN2CCC(c3ccc(Cl)cc3)CC2)cc1 |  | 6.92 | 6.16 | 6.77 | 7.39 | 8.02 | < 5.00
 | OC1(c2ccc(Cl)cc2)CCN(CCCOc2ccc(F)cc2)CC1 |  |  | 6.74 |  | 8.28 |  | 
7.10 | O=C(CCCN1CCN(c2ncccn2)CC1)c1ccc(F)cc1 |  |  |  |  |  |  | 
7.35 | Fc1ccc(SCCCN2CCN(c3ccccn3)CC2)cc1 | 6.67 |  |  |  |  |  | 
 | Fc1ccc(SCCCN2CCN(c3ccc(Cl)cc3)CC2)cc1 |  | 7.28 | 6.37 | 6.78 | 6.68 | 8.06 | 
 | Fc1ccc(SCCCN2CCN(c3ccc(C(F)(F)F)cc3)CC2)cc1 |  | 5.95 | 6.26 | 5.97 | 5.32 | 7.05 | 

Compound | pKi [1] | pKi (Histamine H1 receptor) | pKi [2] | pKi (D(3) dopamine receptor) | pKi [3] | pKi (D(2) dopamine receptor) | pKi (D(4) dopamine receptor) | pKi [4]
Fc1ccc(CCCCN2CCN(c3ccccn3)CC2)cc1 | 6.51 | 6.78 |  |  |  |  |  | 
